According to PubChem BioAssay (NCI):
Values joined by “and” are separate entries in the source; they are usually repeats but may differ in a detail not shown here. Equal values may be shown once.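 Briefly, cells in 96-well plates were exposed to five compound concentrations for 48 h, and endpoints were estimated by linear interpolation. GI50: concentration for 50% inhibition of growth. At the TGI there is no net growth.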

Tests used:
Test in all cases: NCI tumour cell line growth inhibition, 48 h
CCRF-CEM leukemia = system: CCRF-CEM leukemia
A498 renal = system: A498 renal
SF-268 CNS = system: SF-268 CNS
KM20L2 colon = system: KM20L2 colon
NCI-H226 lung = system: NCI-H226 lung
SR leukemia = system: SR leukemia
HCC-2998 colon = system: HCC-2998 colon
MDA-MB-231 breast = system: MDA-MB-231 breast
HOP-92 NSCLC = system: HOP-92 NSCLC
DLD-1 colon = system: DLD-1 colon

In the case of `CC(C)OC(=O)Nc1c([N+](=O)[O-])cc(C(F)(F)F)cc1[N+](=O)[O-]`, the TGI (CCRF-CEM leukemia) is reported as > 100 µM, the TGI (A498 renal) is reported as > 100 µM and the TGI (SF-268 CNS) is reported as > 100 µM. For the same molecule, the TGI (KM20L2 colon) was > 100 µM, the TGI (NCI-H226 lung) was > 100 µM and the TGI (SR leukemia) was > 100 µM. The TGI (HCC-2998 colon) was > 100 µM, the TGI (MDA-MB-231 breast) was > 100 µM and the TGI (HOP-92 NSCLC) was > 91.8 µM. The TGI (DLD-1 colon) was > 100 µM.

`CCOc1ccc2c(c1)[n+]([O-])c(C(N)=O)c(N)[n+]2[O-]` was tested, and the TGI (CCRF-CEM leukemia) was > 100 µM, the TGI (A498 renal) was > 100 µM and the TGI (SF-268 CNS) was > 100 µM. For the same molecule, the TGI (KM20L2 colon) was > 100 µM, the TGI (NCI-H226 lung) was > 100 µM and the TGI (SR leukemia) was > 100 µM. For the same molecule, the TGI (HOP-92 NSCLC) was > 100 µM and the TGI (DLD-1 colon) was > 100 µM.

With `COC(=O)C1=C(C(=O)OC)C23CC4CCC2(C(=O)C1O3)C4(C)C` (centres undefined) the TGI (CCRF-CEM leukemia) was 66.7 µM, the TGI (A498 renal) was > 100 µM and the TGI (SF-268 CNS) was > 100 µM. For the same molecule, the TGI (KM20L2 colon) was > 100 µM, the TGI (NCI-H226 lung) was > 100 µM and the TGI (SR leukemia) was > 100 µM. For the same molecule, the TGI (HCC-2998 colon) was > 100 µM, the TGI (HOP-92 NSCLC) was > 100 µM and the TGI (DLD-1 colon) was > 100 µM.

With `COc1ccc2c(c1[N+](=O)[O-])CC[C@@H]1[C@@H]2CC[C@]2(C)C(=O)CC[C@@H]12` the GI50 (CCRF-CEM leukemia) was > 1000 µM, the GI50 (A498 renal) was 352 µM and the TGI (A498 renal) was > 25 µM and 791 µM. The GI50 (SF-268 CNS) was 342 µM, the TGI (SF-268 CNS) was > 1000 µM and the TGI (KM20L2 colon) was > 25 µM. The GI50 (NCI-H226 lung) was 494 µM, the GI50 (SR leukemia) was > 25 µM and the TGI (SR leukemia) was > 1000 µM. For the same molecule, the GI50 (HCC-2998 colon) was > 25 µM, the TGI (HCC-2998 colon) was > 1000 µM and the GI50 (MDA-MB-231 breast) was 400 µM. For the same molecule, the TGI (MDA-MB-231 breast) was > 905 µM, the GI50 (HOP-92 NSCLC) was 289 µM and the TGI (DLD-1 colon) was > 25 µM.

With `CCC(=O)N1C(=S)SC[C@H]1C(=O)OC` the TGI (CCRF-CEM leukemia) was > 100 µM, the TGI (A498 renal) was > 100 µM and the TGI (SF-268 CNS) was > 100 µM. For the same molecule, the TGI (KM20L2 colon) was > 100 µM, the TGI (NCI-H226 lung) was > 100 µM and the TGI (SR leukemia) was > 100 µM. The TGI (HCC-2998 colon) was > 100 µM, the TGI (HOP-92 NSCLC) was > 100 µM and the TGI (DLD-1 colon) was > 100 µM.

`COc1ccc(C(O)C(c2ccc(OCc3ccccc3)cc2)c2ccc(OCc3ccccc3)cc2)cc1` (centres undefined) was tested, and the TGI (CCRF-CEM leukemia) was > 100 µM, the TGI (SF-268 CNS) was > 100 µM and the TGI (KM20L2 colon) was > 100 µM. For the same molecule, the TGI (NCI-H226 lung) was > 100 µM, the TGI (SR leukemia) was > 100 µM and the TGI (HCC-2998 colon) was > 100 µM. For the same molecule, the TGI (HOP-92 NSCLC) was > 100 µM and the TGI (DLD-1 colon) was > 100 µM.

For `CSC(=Nc1ccc([N+](=O)[O-])cc1C#N)NC(=O)c1ccccc1`, the TGI (CCRF-CEM leukemia) was > 100 µM, the TGI (A498 renal) was > 100 µM and the TGI (SF-268 CNS) was > 100 µM. For the same molecule, the TGI (KM20L2 colon) was > 100 µM, the TGI (NCI-H226 lung) was > 100 µM and the TGI (SR leukemia) was > 100 µM. The TGI (HCC-2998 colon) was > 100 µM, the TGI (HOP-92 NSCLC) was > 100 µM and the TGI (DLD-1 colon) was > 100 µM.

For `O=c1c2ccccc2c(=O)n2n1-c1cccc(c1)CSSCc1cccc-2c1`, the GI50 (CCRF-CEM leukemia) was > 100 µM, the TGI (CCRF-CEM leukemia) was > 100 µM and the GI50 (SF-268 CNS) was > 100 µM. The TGI (SF-268 CNS) was > 100 µM, the TGI (KM20L2 colon) was > 100 µM and the GI50 (NCI-H226 lung) was > 100 µM. For the same molecule, the TGI (NCI-H226 lung) was > 100 µM, the GI50 (SR leukemia) was > 100 µM and the TGI (SR leukemia) was > 100 µM. The GI50 (HCC-2998 colon) was > 100 µM, the TGI (HCC-2998 colon) was > 100 µM and the GI50 (DLD-1 colon) was > 100 µM. For the same molecule, the TGI (DLD-1 colon) was > 100 µM.

`CCN(CC)CC(C(=O)Nc1c(C)cccc1C)/C(C)=N\NC(=S)NN` (centres undefined) was tested, and the TGI (CCRF-CEM leukemia) was > 100 µM, the TGI (A498 renal) was > 100 µM and the TGI (SF-268 CNS) was > 100 µM. For the same molecule, the TGI (KM20L2 colon) was > 100 µM, the TGI (NCI-H226 lung) was > 100 µM and the TGI (HCC-2998 colon) was > 100 µM. The TGI (HOP-92 NSCLC) was > 100 µM and the TGI (DLD-1 colon) was > 100 µM.

`O=C1CN=C(c2ccccc2)c2ccncc2N1` was tested, and the TGI (CCRF-CEM leukemia) was > 100 µM, the TGI (A498 renal) was > 100 µM and the TGI (SF-268 CNS) was > 100 µM. For the same molecule, the TGI (KM20L2 colon) was > 100 µM, the TGI (NCI-H226 lung) was > 100 µM and the TGI (SR leukemia) was > 100 µM. For the same molecule, the TGI (HCC-2998 colon) was > 100 µM, the TGI (HOP-92 NSCLC) was > 100 µM and the TGI (DLD-1 colon) was > 100 µM.

In the case of `CCOP(=O)(OCC)C(C(=O)OC)C(=O)C(=O)Nc1cccc([N+](=O)[O-])c1` (centres undefined), the TGI (CCRF-CEM leukemia) is reported as > 100 µM, the TGI (A498 renal) is reported as > 100 µM and the TGI (SF-268 CNS) is reported as > 100 µM. The TGI (KM20L2 colon) was > 100 µM, the TGI (NCI-H226 lung) was > 100 µM and the TGI (SR leukemia) was > 100 µM. The TGI (HCC-2998 colon) was > 100 µM and the TGI (DLD-1 colon) was > 100 µM.

For `CC1COS(=O)N1c1ccccc1` (centres undefined), the TGI (CCRF-CEM leukemia) was > 100 µM, the TGI (A498 renal) was > 100 µM and the TGI (SF-268 CNS) was > 100 µM. The TGI (KM20L2 colon) was > 100 µM, the TGI (NCI-H226 lung) was > 100 µM and the TGI (HCC-2998 colon) was > 100 µM. The TGI (HOP-92 NSCLC) was > 100 µM and the TGI (DLD-1 colon) was > 100 µM.
